Assay results taken from ChEMBL document CHEMBL4387732, “Capsaicin-like analogue induced selective apoptosis in A2058 melanoma cells: Design, synthesis and molecular modeling” (Bioorg Med Chem, 2019).
The source made the active and inactive calls. No cut-off for these calls is given here.

Experiments:
A2058 [1] = assay: Induction of apoptosis in human A2058 cells assessed as ratio of beta-actin to C-RAF expression incubated for 3 hrs by Western blot analysis; type: functional
HeLa = assay: Cytotoxicity against human HeLa cells assessed as decrease in cell viability incubated for 24 hrs by MTT assay; type: functional, cell-based
A2058 [2] = assay: Induction of apoptosis in human A2058 cells assessed as ratio of beta-actin to caspase 3 expression incubated for 3 hrs by Western blot analysis; type: functional
SK-MEL-25 = assay: Cytotoxicity against human SK-MEL-25 cells assessed as decrease in cell viability incubated for 24 hrs by MTT assay; type: functional, cell-based; conditions: SK-MEL-25, 24 h
A2058 [3] = assay: Cell cycle arrest in human A2058 cells assessed as accumulation of cells in G0/G1 phase incubated for 24 hrs by propidium iodide staining-based flow cytometric analysis; type: functional
B16-F10 [4] = assay: Cytotoxicity against mouse B16F10 cells assessed as decrease in cell viability incubated for 24 hrs by MTT assay; type: functional, cell-based; conditions: B16-F10, 24 h
A2058 [5] = assay: Cell cycle arrest in human A2058 cells assessed as accumulation of cells in subG0/G1 phase at 12.5 to 50 uM incubated for 24 hrs by propidium iodide staining-based flow cytometric analysis; type: functional
A2058 [6] = assay: Induction of apoptosis in human A2058 cells assessed as ratio of beta-actin to C-RAF expression incubated for 6 hrs by Western blot analysis; type: functional
[7] = Cytotoxicity against human T75 cells assessed as decrease in cell viability incubated for 24 hrs by MTT assay; type: cell-based
[8] = Selectivity index, ratio of IC50 for human T75 cells to IC50 for human A2058 cells
A2058 [9] = assay: Cytotoxicity against human A2058 cells assessed as marked formation of apoptotic bodies incubated for 24 hrs by microscopic method; type: functional, cell-based
A2058 [10] = assay: Induction of apoptosis in human A2058 cells assessed as ratio of beta-actin to B-RAF expression incubated for 3 hrs by Western blot analysis; type: functional
HEK-293T = assay: Effect on Ca2+ transport in human HEK293T cells incubated for 5 mins by calcium-5 fluorescence dye-based FLIPR assay; type: functional, cell-based
A2058 [11] = assay: Induction of apoptosis in human A2058 cells assessed as ratio of beta-actin to B-RAF expression incubated for 1 hrs by Western blot analysis; type: functional
A2058 [12] = assay: Cytotoxicity against human A2058 cells assessed as loss of cell adhesion incubated for 24 hrs by microscopic method; type: functional, cell-based
A2058 [13] = assay: Induction of apoptosis in human A2058 cells assessed as ratio of beta-actin to B-RAF expression incubated for 6 hrs by Western blot analysis; type: functional
MCF7 = assay: Cytotoxicity against human MCF7 cells assessed as decrease in cell viability incubated for 24 hrs by MTT assay; type: functional, cell-based
U-87 MG = assay: Cytotoxicity against human U87 cells assessed as decrease in cell viability incubated for 24 hrs by MTT assay; type: functional, cell-based, U-87MG ATCC
A2058 [14] = assay: Induction of apoptosis in human A2058 cells assessed as ratio of beta-actin to caspase 3 expression incubated for 1 hrs by Western blot analysis; type: functional
A2058 [15] = assay: Induction of apoptosis in human A2058 cells assessed as ratio of beta-actin to BCL-XL expression incubated for 6 hrs by Western blot analysis; type: functional
B16-F10 [16] = assay: Cytotoxicity against mouse B16F10 cells assessed as cell cycle arrest incubated for 24 hrs by microscopic method; type: functional, cell-based
A2058 [17] = assay: Cytotoxicity against human A2058 cells assessed as loss of refringence incubated for 24 hrs by microscopic method; type: functional, cell-based
[18] = biological target: T1, Transient receptor potential cation channel subfamily V member 6 (Homo sapiens) (UniProt Q9H1D0); assay: Agonist activity at human TRPV6 expressed in human HEK293 cells assessed as increase in Ca2+ transport at 50 uM incubated for 5 mins by calcium-5 fluorescence dye-based FLIPR assay; type: cell-based
T1 sequence (whole entry): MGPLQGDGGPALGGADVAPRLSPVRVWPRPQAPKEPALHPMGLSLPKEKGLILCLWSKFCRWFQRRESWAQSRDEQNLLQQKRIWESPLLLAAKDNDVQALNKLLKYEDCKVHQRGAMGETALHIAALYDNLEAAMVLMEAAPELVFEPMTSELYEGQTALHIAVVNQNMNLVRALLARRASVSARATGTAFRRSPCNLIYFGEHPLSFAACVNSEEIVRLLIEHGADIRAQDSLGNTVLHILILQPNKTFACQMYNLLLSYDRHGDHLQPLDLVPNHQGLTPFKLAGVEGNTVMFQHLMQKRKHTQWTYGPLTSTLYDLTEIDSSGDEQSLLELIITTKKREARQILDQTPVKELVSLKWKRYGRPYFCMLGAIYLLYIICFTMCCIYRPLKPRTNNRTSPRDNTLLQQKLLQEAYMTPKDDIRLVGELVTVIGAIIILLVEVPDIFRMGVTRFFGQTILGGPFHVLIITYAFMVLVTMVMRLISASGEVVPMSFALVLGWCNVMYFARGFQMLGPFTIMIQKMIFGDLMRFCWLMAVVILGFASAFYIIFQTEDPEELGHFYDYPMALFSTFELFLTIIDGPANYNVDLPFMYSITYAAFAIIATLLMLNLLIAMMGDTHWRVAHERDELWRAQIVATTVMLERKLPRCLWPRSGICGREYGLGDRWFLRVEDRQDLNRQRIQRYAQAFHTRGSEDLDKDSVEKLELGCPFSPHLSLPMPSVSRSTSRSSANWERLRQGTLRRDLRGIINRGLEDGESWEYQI

[19] = biological target: T2, Transient receptor potential cation channel subfamily V member 1 (Homo sapiens, UniProt Q8NER1); assay: Agonist activity at human TRPV1 expressed in HEK293T cells assessed as increase in Ca2+ transport incubated for 5 mins by calcium-5 fluorescence dye-based FLIPR assay; type: cell-based
T2 sequence (Q8NER1 whole entry): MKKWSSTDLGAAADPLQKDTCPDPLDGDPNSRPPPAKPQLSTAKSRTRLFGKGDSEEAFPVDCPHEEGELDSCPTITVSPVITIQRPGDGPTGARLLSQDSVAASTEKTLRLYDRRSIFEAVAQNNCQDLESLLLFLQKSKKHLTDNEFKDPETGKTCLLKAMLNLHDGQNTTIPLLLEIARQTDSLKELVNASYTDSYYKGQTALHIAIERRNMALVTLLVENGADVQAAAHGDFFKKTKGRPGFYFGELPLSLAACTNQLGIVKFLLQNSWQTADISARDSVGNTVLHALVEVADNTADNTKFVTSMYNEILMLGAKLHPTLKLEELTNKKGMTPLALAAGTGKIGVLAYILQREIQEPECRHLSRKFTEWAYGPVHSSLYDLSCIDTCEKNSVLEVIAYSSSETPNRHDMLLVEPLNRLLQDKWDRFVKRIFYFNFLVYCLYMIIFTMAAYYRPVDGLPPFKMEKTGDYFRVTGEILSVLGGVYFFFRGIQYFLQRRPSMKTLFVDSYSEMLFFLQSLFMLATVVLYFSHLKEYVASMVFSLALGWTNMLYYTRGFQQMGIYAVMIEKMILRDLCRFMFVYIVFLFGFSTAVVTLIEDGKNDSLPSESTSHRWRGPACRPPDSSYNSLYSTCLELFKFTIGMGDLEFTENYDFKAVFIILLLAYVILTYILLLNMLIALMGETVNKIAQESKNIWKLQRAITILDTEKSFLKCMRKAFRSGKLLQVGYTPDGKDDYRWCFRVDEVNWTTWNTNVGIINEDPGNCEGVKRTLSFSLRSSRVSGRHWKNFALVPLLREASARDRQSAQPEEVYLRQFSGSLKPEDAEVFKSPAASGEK

B16-F10 [20] = assay: Cell cycle arrest in mouse B16F10 cells assessed as variation in subG0/G1 population at 12.5 to 50 uM incubated for 24 hrs by propidium iodide staining-based flow cytometric analysis; type: functional
B16-F10 [21] = assay: Cell cycle arrest in mouse B16F10 cells assessed as increase the G0/G1 phase incubated for 24 hrs by propidium iodide staining-based flow cytometric analysis; type: functional
A2058 [22] = assay: Induction of apoptosis in human A2058 cells assessed as ratio of beta-actin to caspase 3 expression incubated for 6 hrs by Western blot analysis; type: functional
A2058 [23] = assay: Cytotoxicity against human A2058 cells assessed as induction of withdrawal of cytoplasm incubated for 24 hrs by microscopic method; type: functional, cell-based
A2058 [24] = assay: Induction of apoptosis in human A2058 cells assessed as ratio of beta-actin to C-RAF expression incubated for 1 hrs by Western blot analysis; type: functional
[25] = biological target: T2, Transient receptor potential cation channel subfamily V member 1; assay: Agonist activity at human TRPV1 expressed in human HEK293T cells assessed as increase in Ca2+ transport at 10 uM incubated for 5 mins in presence of TRPV1 antagonist capsazepine by calcium-5 fluorescence dye-based FLIPR assay; type: cell-based
A2058 [26] = assay: Induction of apoptosis in human A2058 cells assessed as ratio of beta-actin to BCL-XL expression incubated for 1 hrs by Western blot analysis; type: functional
Mus musculus = assay: In-vivo activation of TRPV1 receptor in Swiss mouse assessed as induction of nociception by measuring paw flinching/licking response at 5.2 nmol/paw administrated via intraplantar route and measured for first 5 mins post treatment; type: functional, organism-based
A2058 [27] = assay: Cytotoxicity against human A2058 cells assessed as alteration in cell morphology incubated for 24 hrs by microscopic method; type: functional, cell-based
A2058 [28] = assay: Cytotoxicity against human A2058 cells assessed as decrease in cell viability incubated for 24 hrs by MTT assay; type: functional, cell-based; conditions: A2058, 24 h
A2058 [29] = assay: Induction of apoptosis in human A2058 cells assessed as increase in cleaved caspase 3 expression level incubated for 6 hrs by Western blot analysis; type: functional, cell-based
A2058 [30] = assay: Induction of apoptosis in human A2058 cells assessed as ratio of beta-actin to BCL-XL expression incubated for 3 hrs by Western blot analysis; type: functional
[31] = biological target: T1, Transient receptor potential cation channel subfamily V member 6 (Homo sapiens); assay: Antagonist activity at human TRPV6 expressed in human HEK293 cells assessed as reduction in Ca2+ transport at 2.5 uM incubated for 5 mins by calcium-5 fluorescence dye-based FLIPR assay; type: cell-based
[32] = biological target: T1, Transient receptor potential cation channel subfamily V member 6 (Homo sapiens); assay: Agonist activity at human TRPV6 expressed in human HEK293 cells assessed as increase in Ca2+ transport at 100 nM incubated for 5 mins by calcium-5 fluorescence dye-based FLIPR assay; type: cell-based

CCCCCCNC(=S)NCc1ccc2c(c1)OCO2
Ratio (A2058 [1]): 0.49 | Activity (HeLa): inactive | Ratio (A2058 [2]): 1.11 | IC50 (SK-MEL-25): 67.2 µM | Activity (A2058 [3]): Dose-dependent effect | IC50 (B16-F10 [4]): > 100 µM | Activity (A2058 [5]): Active | Ratio (A2058 [6]): 0.32 | IC50 [7]: > 100 µM | Ratio IC50 [8]: >1.8 | Activity (A2058 [9]): Active | Ratio (A2058 [10]): 0.48 | Activity (HEK-293T): inactive | Ratio (A2058 [11]): 0.45 | Activity (A2058 [12]): Active | Ratio (A2058 [13]): 0.52 | Activity (MCF7): inactive | IC50 (U-87 MG): 87 µM | Ratio (A2058 [14]): 1.18 | Ratio (A2058 [15]): 0.6 | Activity (B16-F10 [16]): Active | Activity (A2058 [17]): Active | Activity [18]: inactive | EC50 [19]: 4.62 µM | Activity (B16-F10 [20]): inactive | Activity (B16-F10 [21]): Dose-dependent effect | Ratio (A2058 [22]): 0.6 | Activity (A2058 [23]): Active | Ratio (A2058 [24]): 0.6 | Activity [25]: inactive | Ratio (A2058 [26]): 1.22 | Activity (Mus musculus): inactive | Activity (A2058 [27]): Active | IC50 (A2058 [28]): 55.2 µM | Activity (A2058 [29]): Active | Ratio (A2058 [30]): 1.2

Cc1cccc([C@H]2CC[C@@H](N3CCN(c4cccnc4)CC3)CC2)c1
inhibition [31]: Active

COc1cc(CNC(=O)Nc2ccc([N+](=O)[O-])cc2)ccc1O
Activity (HeLa): inactive | IC50 (SK-MEL-25): 98.7 µM | IC50 (B16-F10 [4]): > 100 µM | IC50 [7]: > 100 µM | Ratio IC50 [8]: >1.1 | Activity (MCF7): inactive | IC50 (U-87 MG): 98.5 µM | IC50 (A2058 [28]): 98.2 µM

COc1ccc(NC(=O)NCc2ccc(O)c(OC)c2)cc1
Activity (HeLa): inactive | IC50 (SK-MEL-25): 91.8 µM | IC50 (B16-F10 [4]): > 100 µM | IC50 [7]: > 100 µM | Ratio IC50 [8]: >1.08 | Activity (MCF7): inactive | IC50 (U-87 MG): > 100 µM | IC50 (A2058 [28]): 92.5 µM

COc1cc(CNC(=O)Nc2ccc(Cl)cc2)ccc1O
Activity (HeLa): inactive | IC50 (SK-MEL-25): 90.5 µM | IC50 (B16-F10 [4]): > 100 µM | IC50 [7]: > 100 µM | Ratio IC50 [8]: >1.18 | Activity (MCF7): inactive | IC50 (U-87 MG): 92.5 µM | IC50 (A2058 [28]): 84.5 µM

COc1cc(CNC(=O)CCCC/C=C/C(C)C)ccc1O [CAPSAICIN]
IC50 (SK-MEL-25): > 100 µM | IC50 (B16-F10 [4]): > 100 µM | IC50 [7]: > 100 µM | Activity (HEK-293T): inactive | IC50 (U-87 MG): > 100 µM | Activity [32]: inactive | Activity (Mus musculus): Active | IC50 (A2058 [28]): > 100 µM
